Assay results reported in ChEMBL document CHEMBL4118096, “Branched Peptides: Acridine and Boronic Acid Derivatives as Antimicrobial Agents” (ACS Med Chem Lett, 2017).
Values after ≈ are worked out from the molar mass of the structure shown. Where a SMILES comes first, the peptide text is derived from it. The star is where a group is joined. Benzoyl(4-B(OH)2) = O=C(c1ccc(B(O)O)cc1)*; Acridin9yl = c1ccc2c(*)c3ccccc3nc2c1

Experiments:
[1] = test system: Escherichia coli; experiment: Antimicrobial activity against Escherichia coli C ATCC 13706 measured on day 4 by broth microdilution method; assay type: functional; settings: C ATCC 13706, 96 h
[2] = test system: U-87 MG; experiment: Cytotoxicity against human U87 cells assessed as decrease in cell viability at 10 uM after 24 hrs by MTT assay; assay type: cell-based; settings: u-87mg atcc
[3] = test system: Aspergillus niger; experiment: Antifungal activity against Aspergillus niger measured on day 4 by broth microdilution method; assay type: functional; settings: 96 h
[4] = test system: Staphylococcus aureus; experiment: Antimicrobial activity against methicillin-resistant Staphylococcus aureus ATCC 43300 measured on day 4 by broth microdilution method; assay type: functional; settings: ATCC 43300, 96 h
[5] = test system: Mycolicibacterium smegmatis; experiment: Antimicrobial activity against Mycobacterium smegmatis ATCC 607 measured on day 4 by broth microdilution method; assay type: functional; settings: ATCC 607, 96 h
[6] = test system: Staphylococcus aureus; experiment: Antimicrobial activity against Staphylococcus aureus ATCC 6538 measured on day 4 by broth microdilution method; assay type: functional; settings: ATCC 6538, 96 h
[7] = test system: Candida albicans; experiment: Antifungal activity against Candida albicans measured on day 4 by broth microdilution method; assay type: functional; settings: 96 h
[8] = Safety index, ratio of EC10 for hemolytic activity in sheep RBC to MIC for Candida albicans; assay type: toxicity; settings: sheep red blood cells
[9] = test system: Candida albicans; experiment: Antifungal activity against Candida albicans VT1406 in cell suspension after 24 hrs by XXT/PMS dye based assay; assay type: functional; settings: VT1406, 24 h
[10] = test system: Saccharomyces cerevisiae; experiment: Induction of membrane lysis activity in Saccharomyces cerevisiae assessed as maltase release at MIC after 60 mins relative to control; assay type: functional
[11] = test system: Candida albicans; experiment: Antibiofilm activity against Candida albicans VT1406 after 24 hrs by XXT/PMS dye based assay; assay type: functional; settings: VT1406, 24 h
[12] = test system: Erythrocyte; experiment: Hemolytic activity in sheep RBC measured after 15 mins; assay type: ADME, cell-based, Ovis aries; settings: 0.25 h
[13] = test system: Candida albicans; experiment: Induction of membrane lysis in Candida albicans assessed as maltase release at MIC after 60 mins relative to control; assay type: functional

Structure (SMILES)	MIC [1] [µg/mL]	Activity [2]	MIC [3] [µg/mL]	MIC [4] [µg/mL]	MIC [5] [µg/mL]	MIC [6] [µg/mL]	MIC [7] [µg/mL]	selectivity ratio [8]	MIC [9] [µg/mL]	Activity [10] [%]	MIC [11] [µg/mL]	EC10 [12] [µg/mL]	Activity [13] [%]
CC(C)C[C@H](NC(=O)[C@H](CCCCN)NC(=O)[C@H](CCCCN)NC(=O)[C@H](CCCCN)NC(=O)[C@H](CCCCNc1c2ccccc2nc2ccccc12)NC(=O)[C@H](CCCCN)NC(=O)[C@H](CCCCN)NC(=O)[C@@H](N)CCCCNc1c2ccccc2nc2ccccc12)C(=O)N[C@@H](CCCCNC(=O)c1ccc(B(O)O)cc1)C(=O)N[C@@H](Cc1ccc(O)cc1)C(=O)O (H-K(Acridin9yl)KKK(Acridin9yl)KKKLK(Benzoyl(4-B(OH)2))Y-OH)	4 (≈ 2.2 µM)	Non-Toxic	32 (≈ 17.6 µM)	2 (≈ 1.1 µM)	16 (≈ 8.78 µM)	1 (≈ 0.549 µM)	8 (≈ 4.39 µM)						
NCCCC[C@H](NC(=O)[C@H](CCCCNc1c2ccccc2nc2ccccc12)NC(=O)[C@H](CCCCNc1c2ccccc2nc2ccccc12)NC(=O)[C@H](CCCCN)NC(=O)[C@H](CCCCN)NC(=O)[C@H](CCCCN)NC(=O)[C@H](CCCCN)NC(=O)[C@H](CCCCN)NC(=O)[C@@H](N)CCCCN)C(=O)N[C@@H](Cc1ccc(O)cc1)C(=O)O (H-KKKKKKK(Acridin9yl)K(Acridin9yl)KY-OH)	8 (≈ 4.74 µM)	Non-Toxic	62.5 (≈ 37 µM)	62.5 (≈ 37 µM)	16 (≈ 9.47 µM)	1 (≈ 0.592 µM)	4 (≈ 2.37 µM)						
CC(C)C[C@H](NC(=O)[C@H](CCCCN)NC(=O)[C@H](CCCCN)NC(=O)[C@H](CCCCN)NC(=O)[C@H](CCCCN)NC(=O)[C@H](CCCCN)NC(=O)[C@H](CCCCN)NC(=O)[C@@H](N)CCCCN)C(=O)N[C@@H](CCCCNc1c2ccccc2nc2ccccc12)C(=O)N[C@@H](Cc1ccc(O)cc1)C(=O)O (H-KKKKKKKLK(Acridin9yl)Y-OH)	8 (≈ 5.34 µM)	Non-Toxic	62.5 (≈ 41.8 µM)		32 (≈ 21.4 µM)	16 (≈ 10.7 µM)	2 (≈ 1.34 µM)	> 100	1 (≈ 0.668 µM)	0.7	1 (≈ 0.668 µM)	> 250	6
